Source: patent US20240067632A1, “WEE1 Degrading Compounds and Uses Thereof” (Bristol-Myers Squibb Company, priority 2022, published 2024)
pEC50: −log10 of the molar value. Like-named read-outs stand apart in the source and are kept apart here.

How the values were obtained:
MKN45 cells = assay: MKN45 cell proliferation assay (Cell-Titer-Glo, 120 h); assay type: cell-based; settings: for pEC50: Homo sapiens, MKN-45, 120 h, Cell-Titer-Glo, read-out: MKN45 Cell Prolif. 120 hr (EC50); for MKN45 Cell Prolif. 120 hr (Ymin-Obs): minimal percent of DMSO control observed in the concentrations tested
Outline: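 Cells seeded at 400/well onto pre-printed 10-point half-log dilutions (top 1 or 10 uM, 0.1% DMSO final), in triplicate, and grown 120 h at 37 C. Viability by Cell-Titer-Glo luminescence, blank-subtracted and normalised to DMSO; EC50 from four-parameter logistic fit, with observed minimal % of control recorded as Ymin-obs.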

WEE1 = biological target: T1, WEE1 (Homo sapiens, UniProt P30291+Q96SW2); assay: WEE1-ePL degradation assay (LentiX-WEE1-ePL-GSPT1-ND cells, InCELL Hunter luminescence, 4 h); assay type: cell-based; settings: 293T-LentiX WEE1-ePL cells; for DC50: read-out: 293T-LentiX WEE1-ePL Degradation 4 hr (EC50)
T1 construct: C-terminal ePL-tagged (DiscoverX, Fremont, CA) full-length WEE1 expression construct; expressed in transfected cells; host or cells: LentiX-HEK293T (Invitrogen), lentiviral transduction; co-expressing GSPT1-GN (G576N, lacking the first 158 amino acids)
Outline: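 Degradation EC50 was fitted by a four-parameter logistic model, with the upper limit taken from DMSO wells. Luminescence was read with InCELL Hunter reagent after 30 min at room temperature, following a 4 h, 37° C exposure of 2500 cells/well. Cells were LentiX-HEK293T carrying ePL-tagged full-length WEE1, dosed in 10 points (3-fold) from 1 or 10 uM.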

[1] = lower limit of the fit (Ymin=0 luciferase inhibitor, Ymax DMSO control)
[2] = lower limit of the fit (0 = luciferase inhibitor, Ymax = DMSO control)

Row | Compound | pEC50 (MKN45 cells) | MKN45 Cell Prolif. 120 hr (Ymin-Obs) (MKN45 cells) | 293T-LentiX WEE1-ePL Degradation 4 hr (Ymin) (WEE1; [1]) | DC50 (WEE1) | pEC50 (MKN45 cells; growth inhibition) | 293T-LentiX WEE1-ePL Degradation 4 hr (Ymin) (WEE1; [2])
1 | CO[C@@H]1CCCC[C@H]1c1ccc2cc(CN3CC[C@H](Oc4ccc5c(c4)CN(C4CCC(=O)NC4=O)C5=O)C3)ccc2n1 (stereo partly drawn) [3-(5-{[(3S)-1-({2-[(1S,2R)-2-methoxycyclohexyl]quinolin-6-yl}methyl)pyrrolidin-3-yl]oxy}-1-oxo-2,3-dihydro-1H-isoindol-2-yl)piperidine-2,6-dione] | 6.37 | 51.58 | 32.43 | 21.5 nM |  | 
2 | CO[C@@H]1CCC[C@H]1c1ccc2cc(CN3CC[C@H](Oc4ccc5c(c4)CN(C4CCC(=O)NC4=O)C5=O)C3)ccc2n1 (stereo partly drawn) [3-(5-{[(3S)-1-({2-[(1S,2R)-2-methoxycyclopentyl]quinolin-6-yl}methyl)pyrrolidin-3-yl]oxy}-1-oxo-2,3-dihydro-1H-isoindol-2-yl)piperidine-2,6-dione] | 7.92 | 13.63 | 37.17 | 3.01 nM |  | 
3 | COC[C@H]1CCCC[C@@H]1c1ccc2cc(CN3CC[C@H](Oc4ccc5c(c4)CN(C4CCC(=O)NC4=O)C5=O)C3)ccc2n1 (stereo partly drawn) [3-(5-{[(3S)-1-({2-[(1S,2S)-2-(methoxymethyl)cyclohexyl]quinolin-6-yl}methyl)pyrrolidin-3-yl]oxy}-1-oxo-2,3-dihydro-1H-isoindol-2-yl)piperidine-2,6-dione] | 8.85 | 11.37 | 21.7 | 3.03 nM |  | 
4 | COC[C@H]1CCC[C@@H]1c1ccc2cc(CN3CC[C@H](Oc4ccc5c(c4)CN(C4CCC(=O)NC4=O)C5=O)C3)ccc2n1 (stereo partly drawn) [3-(5-{[(3S)-1-({2-[(1S,2S)-2-(methoxymethyl)cyclopentyl]quinolin-6-yl}methyl)pyrrolidin-3-yl]oxy}-1-oxo-2,3-dihydro-1H-isoindol-2-yl)piperidine-2,6-dione] | 7.92 | 11.37 | 27.68 | 5.38 nM |  | 
5 | COC[C@@H]1CCC[C@H](c2ccc3cc(CN4CC[C@H](Oc5ccc6c(c5)CN(C5CCC(=O)NC5=O)C6=O)C4)ccc3n2)C1 (stereo partly drawn) [3-(5-{[(3S)-1-({2-[(1S,3R)-3-(methoxymethyl)cyclohexyl]quinolin-6-yl}methyl)pyrrolidin-3-yl]oxy}-1-oxo-2,3-dihydro-1H-isoindol-2-yl)piperidine-2,6-dione] | 8.76 | 10.23 | 27.12 | 1.63 nM |  | 
6 | COC[C@@H]1CC[C@H](c2ccc3cc(CN4CC[C@H](Oc5ccc6c(c5)CN(C5CCC(=O)NC5=O)C6=O)C4)ccc3n2)C1 (stereo partly drawn) [3-(5-{[(3S)-1-({2-[(1S,3R)-3-(methoxymethyl)cyclopentyl]quinolin-6-yl}methyl)pyrrolidin-3-yl]oxy}-1-oxo-2,3-dihydro-1H-isoindol-2-yl)piperidine-2,6-dione] | 8.59 | 8.786 | 32.37 | 5.9 nM |  | 
7 | O=C1CCC(N2Cc3cc(O[C@H]4CCN(Cc5ccc6nc([C@H]7CCC[C@@H](O)C7)ccc6c5)C4)ccc3C2=O)C(=O)N1 (stereo partly drawn) [3-(5-{[(3S)-1-({2-[(1S,3R)-3-hydroxycyclohexyl]quinolin-6-yl}methyl)pyrrolidin-3-yl]oxy}-1-oxo-2,3-dihydro-1H-isoindol-2-yl)piperidine-2,6-dione] |  | 7.93 |  | 9.66 nM | 7.96 | 32
8 | O=C1CCC(N2Cc3cc(O[C@H]4CCN(Cc5ccc6nc([C@H]7CC[C@@H](O)C7)ccc6c5)C4)ccc3C2=O)C(=O)N1 (stereo partly drawn) [3-(5-{[(3S)-1-({2-[(1S,3R)-3-hydroxycyclopentyl]quinolin-6-yl}methyl)pyrrolidin-3-yl]oxy}-1-oxo-2,3-dihydro-1H-isoindol-2-yl)piperidine-2,6-dione] |  | 7.68 |  | 2.99 nM | 8.57 | 31
9 | CO[C@@H]1CCC[C@H](c2ccc3cc(CN4CC[C@H](Oc5ccc6c(c5)CN(C5CCC(=O)NC5=O)C6=O)C4)ccc3n2)C1 (stereo partly drawn) [3-(5-{[(3S)-1-({2-[(1S,3R)-3-methoxycyclohexyl]quinolin-6-yl}methyl)pyrrolidin-3-yl]oxy}-1-oxo-2,3-dihydro-1H-isoindol-2-yl)piperidine-2,6-dione] |  | 9.143 |  | 28.7 nM | 7.78 | 32
10 | CO[C@@H]1CC[C@H](c2ccc3cc(CN4CC[C@H](Oc5ccc6c(c5)CN(C5CCC(=O)NC5=O)C6=O)C4)ccc3n2)C1 (stereo partly drawn) [3-(5-{[(3S)-1-({2-[(1S,3R)-3-methoxycyclopentyl]quinolin-6-yl}methyl)pyrrolidin-3-yl]oxy}-1-oxo-2,3-dihydro-1H-isoindol-2-yl)piperidine-2,6-dione] |  | 8.776 |  | 2.07 nM | 8.79 | 29.67
11 | COC[C@H]1CCC[C@H](c2ccc3cc(CN4CC[C@H](Oc5ccc6c(c5)CN(C5CCC(=O)NC5=O)C6=O)C4)ccc3n2)C1 (stereo partly drawn) [3-(5-{[(3S)-1-({2-[(1S,3S)-3-(methoxymethyl)cyclohexyl]quinolin-6-yl}methyl)pyrrolidin-3-yl]oxy}-1-oxo-2,3-dihydro-1H-isoindol-2-yl)piperidine-2,6-dione] | 8.24 | 11.34 | 32.49 | 7.61 nM |  | 
12 | COC[C@H]1CC[C@H](c2ccc3cc(CN4CC[C@H](Oc5ccc6c(c5)CN(C5CCC(=O)NC5=O)C6=O)C4)ccc3n2)C1 (stereo partly drawn) [3-(5-{[(3S)-1-({2-[(1S,3S)-3-(methoxymethyl)cyclopentyl]quinolin-6-yl}methyl)pyrrolidin-3-yl]oxy}-1-oxo-2,3-dihydro-1H-isoindol-2-yl)piperidine-2,6-dione] | 8.60 | 8.033 | 33.9 | 6.8 nM |  | 
13 | O=C1CCC(N2Cc3cc(O[C@H]4CCN(Cc5ccc6nc([C@H]7CC[C@H](O)C7)ccc6c5)C4)ccc3C2=O)C(=O)N1 (stereo partly drawn) [3-(5-{[(3S)-1-({2-[(1S,3S)-3-hydroxycyclopentyl]quinolin-6-yl}methyl)pyrrolidin-3-yl]oxy}-1-oxo-2,3-dihydro-1H-isoindol-2-yl)piperidine-2,6-dione] |  | 8.695 |  | 2.67 nM | 8.49 | 27.5
14 | CO[C@H]1CCC[C@H](c2ccc3cc(CN4CC[C@H](Oc5ccc6c(c5)CN(C5CCC(=O)NC5=O)C6=O)C4)ccc3n2)C1 (stereo partly drawn) [3-(5-{[(3S)-1-({2-[(1S,3S)-3-methoxycyclohexyl]quinolin-6-yl}methyl)pyrrolidin-3-yl]oxy}-1-oxo-2,3-dihydro-1H-isoindol-2-yl)piperidine-2,6-dione] |  | 9.255 |  | 3.58 nM | 8.70 | 30.5
15 | CO[C@H]1CC[C@H](c2ccc3cc(CN4CC[C@H](Oc5ccc6c(c5)CN(C5CCC(=O)NC5=O)C6=O)C4)ccc3n2)C1 (stereo partly drawn) [3-(5-{[(3S)-1-({2-[(1S,3S)-3-methoxycyclopentyl]quinolin-6-yl}methyl)pyrrolidin-3-yl]oxy}-1-oxo-2,3-dihydro-1H-isoindol-2-yl)piperidine-2,6-dione] |  | 8.927 |  | 6.19 nM | 8.32 | 32.5
16 | O=C1CCC(N2Cc3cc(O[C@H]4CCN(Cc5ccc6nc(N7C[C@@H]8C[C@H]7CO8)ncc6c5)C4)ccc3C2=O)C(=O)N1 (stereo partly drawn) [3-(5-{[(3S)-1-({2-[(1S,4S)-2-oxa-5-azabicyclo[2.2.1]heptan-5-yl]quinazolin-6-yl}methyl)pyrrolidin-3-yl]oxy}-1-oxo-2,3-dihydro-1H-isoindol-2-yl)piperidine-2,6-dione] |  | 9.576 |  | 12.3 nM | 8.01 | 34.5
17 | O=C1CCC(N2Cc3cc(O[C@H]4CCN(Cc5ccc6nc(N7C[C@@H]8C[C@H]7CO8)ccc6c5)C4)ccc3C2=O)C(=O)N1 (stereo partly drawn) [3-(5-{[(3S)-1-({2-[(1S,4S)-2-oxa-5-azabicyclo[2.2.1]heptan-5-yl]quinolin-6-yl}methyl)pyrrolidin-3-yl]oxy}-1-oxo-2,3-dihydro-1H-isoindol-2-yl)piperidine-2,6-dione] |  | 8.09 |  | 2.98 nM | 8.26 | 34
18 | C[C@@H]1CC(c2ccc3cc(CN4CC[C@H](Oc5ccc6c(c5)CN(C5CCC(=O)NC5=O)C6=O)C4)ccc3n2)CCO1 (stereo partly drawn) [3-(5-{[(3S)-1-({2-[(2R)-2-methyloxan-4-yl]quinolin-6-yl}methyl)pyrrolidin-3-yl]oxy}-1-oxo-2,3-dihydro-1H-isoindol-2-yl)piperidine-2,6-dione] |  | 14.5 |  | 10.5 nM | 7.96 | 29.54
